Data published in patent US11274332B2, “Methods of administering 3,4-diaminopyridine” (SERB SA, priority 2011, dated 2022).

What was measured:
dog hepatocytes = experiment: In vitro metabolism of 14C-amifampridine in dog hepatocytes (Example 2); type: in vitro ADME
Method: (§1) The objective of this hepatocyte study was to determine the extent of metabolism, complete metabolic profile and metabolite characterization of amifampridine phosphate in several species with ^14C-amifampridine phosphate for a cross species comparison. The following procedures were used to study the metabolism in rat (Example 1), dog (Example 2), and human hepatocytes (Example 3).
(§2) The cryopreserved hepatocytes were removed from storage, quickly thawed in a 37° C. water bath for 1 to 2 min, and transferred to a 50 ml tube containing pre-warmed InVitroGRO HT medium (Celsis Inc., Baltimore). The cell suspension was mixed by gentle inversion and the cells were pelleted by centrifugation at 50 to 75×g for 5 min. The supernatant medium was removed and the cells were resuspended in Williams' Medium E. Hepatocyte viability was assessed by using trypan blue exclusion. Hepatocyte density was determined by counting cells with a hemocytometer and the density was adjusted with Williams' Medium E to achieve a final density of 1,000,000 cells/mL. […] The supernatant medium was removed and the cells were resuspended in cold Williams' Medium E. The cell density was then determined using a hemocytometer and the density was adjusted with Williams' Medium E to achieve a final density of 1,000,000 cells/mL. […]

human hepatocytes = experiment: In vitro metabolism of 14C-amifampridine in human hepatocytes (Example 3); type: in vitro ADME; conditions: multiple donors
Method: as §1, §2

Nc1ccncc1N [3,4-DAP, 3,4-diaminopyridine]
conversion of 3,4-DAP to its metabolite (dog hepatocytes): No conversion
formation of single major acetylated amifampridine metabolite (human hepatocytes): variable
